Experimental data: US11584747B2, “Substituted pyridopyrimidinonyl compounds useful as T cell activators” (BRISTOL-MYERS SQUIBB COMPANY, priority 2019, dated 2023)
Where two headings read alike, the source gives them in different places.

Legend:
human DGKα = human DGKα (Homo sapiens (Human), UniProt P23743); assay: DGKα ADPGLO assay (detergent/lipid micelle substrate); assay type: biochemical
Procedure: DGK Alpha ADPGLO (Truncated) IC50 (uM)
The detergent/lipid micelle was prepared by combining 15 g phosphatidylserine (Avanti 840035P) and 1 g diacylglycerol (8008110) and dissolving into 150 mL chloroform in a 2 L round bottom flask. Chloroform was removed under high vacuum by rotary evaporation. […] The lipid/detergent solution was split into 5 mL aliquots and stored at −80° C.

human DGKζ = human DGKζ (Homo sapiens (Human), UniProt Q13574); assay: DGKζ LIPGLO assay (extruded liposome substrate, ADP-Glo luminescence); assay type: biochemical
[1] = ADPGLO assay, read-out: DGK alpha ADPGLO IC50
[2] = liposome (LIPGLO) assay, read-out: DGK zeta (liposome assay) IC50
[3] = truncated DGK alpha, read-out: DGK alpha ADPGLO (Truncated) IC50
[4] = liposome assay, read-out: DGK zeta LIPGLO IC50

human DGKζ, sequence (Q13574 other isoform, or with tags, fused parts or gaps): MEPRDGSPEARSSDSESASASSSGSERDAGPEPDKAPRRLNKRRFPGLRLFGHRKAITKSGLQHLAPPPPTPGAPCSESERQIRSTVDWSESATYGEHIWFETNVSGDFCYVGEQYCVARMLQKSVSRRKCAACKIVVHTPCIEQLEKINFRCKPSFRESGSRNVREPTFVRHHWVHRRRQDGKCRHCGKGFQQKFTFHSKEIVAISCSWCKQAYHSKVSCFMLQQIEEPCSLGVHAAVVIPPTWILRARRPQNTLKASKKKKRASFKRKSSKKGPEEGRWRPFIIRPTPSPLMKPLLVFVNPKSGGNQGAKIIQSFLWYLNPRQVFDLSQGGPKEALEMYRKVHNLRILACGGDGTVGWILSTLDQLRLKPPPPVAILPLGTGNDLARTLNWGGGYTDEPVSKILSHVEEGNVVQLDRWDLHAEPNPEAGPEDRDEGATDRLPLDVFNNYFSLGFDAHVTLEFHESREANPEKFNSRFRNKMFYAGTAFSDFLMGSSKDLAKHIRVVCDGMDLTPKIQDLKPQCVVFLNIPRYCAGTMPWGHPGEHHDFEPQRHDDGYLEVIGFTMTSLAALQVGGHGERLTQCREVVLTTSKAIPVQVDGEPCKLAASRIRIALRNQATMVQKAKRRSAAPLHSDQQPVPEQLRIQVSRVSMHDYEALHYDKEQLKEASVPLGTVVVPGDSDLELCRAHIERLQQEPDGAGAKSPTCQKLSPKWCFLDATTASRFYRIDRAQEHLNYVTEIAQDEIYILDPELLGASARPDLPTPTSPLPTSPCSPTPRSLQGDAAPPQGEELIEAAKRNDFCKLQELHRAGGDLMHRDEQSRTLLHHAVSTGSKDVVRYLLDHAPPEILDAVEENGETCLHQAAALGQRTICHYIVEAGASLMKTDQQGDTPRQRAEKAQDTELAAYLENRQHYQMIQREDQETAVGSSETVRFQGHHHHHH
human DGKα, sequence (P23743 whole entry, looked up, the tested form may be a part): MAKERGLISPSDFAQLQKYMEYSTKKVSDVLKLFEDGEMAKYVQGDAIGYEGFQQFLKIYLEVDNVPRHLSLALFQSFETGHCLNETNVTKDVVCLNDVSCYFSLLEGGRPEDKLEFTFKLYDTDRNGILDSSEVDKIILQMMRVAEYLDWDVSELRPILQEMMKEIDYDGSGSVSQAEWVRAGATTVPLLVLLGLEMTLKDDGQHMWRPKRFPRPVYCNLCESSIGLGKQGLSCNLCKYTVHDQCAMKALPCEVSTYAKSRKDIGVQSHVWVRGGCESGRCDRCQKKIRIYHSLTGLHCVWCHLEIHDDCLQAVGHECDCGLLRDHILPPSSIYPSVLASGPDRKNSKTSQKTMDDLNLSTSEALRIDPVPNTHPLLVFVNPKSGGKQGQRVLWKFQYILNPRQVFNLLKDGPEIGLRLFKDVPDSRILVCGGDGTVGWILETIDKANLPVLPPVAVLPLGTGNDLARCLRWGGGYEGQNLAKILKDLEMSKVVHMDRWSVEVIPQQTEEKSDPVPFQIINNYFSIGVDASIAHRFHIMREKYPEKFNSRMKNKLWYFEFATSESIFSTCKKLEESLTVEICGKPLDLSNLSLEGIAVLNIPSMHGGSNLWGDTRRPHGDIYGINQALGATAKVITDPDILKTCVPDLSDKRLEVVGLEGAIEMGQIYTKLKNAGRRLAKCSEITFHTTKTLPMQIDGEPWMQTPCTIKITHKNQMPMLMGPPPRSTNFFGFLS

| SMILES | IC50 (human DGKα; [1]) [nM] | IC50 (human DGKζ; [2]) [nM] | IC50 (human DGKα; [3]) [nM] | IC50 (human DGKζ; [4]) [nM] |
| --- | --- | --- | --- | --- |
| CC[C@@H]1CN(c2nc(=O)n(C)c3ccc(C#N)nc23)[C@@H](CC)CN1Cc1ccc(C2CC2)cc1F [Example 242, 4-((2S,5R)-4-(4-cyclopropyl-2-fluorobenzyl)-2,5-diethylpiperazin-1-yl)-1-methyl-2-oxo-1,2-dihydropyrido[3,2-d]pyrimidine-6-carbonitrile] |  |  | 260 | 190 |
| CC[C@H]1CN(C(C)c2ccc(C(C)(C)N3CCOCC3)cc2)[C@H](CC)CN1c1nc(=O)n(C)c2ccc(C#N)nc12 (stereo partly drawn) [Example 247, 4-((2S,5R)-2,5-diethyl-4-(1-(4-(2-morpholinopropan-2-yl)phenyl)ethyl)piperazin-1-yl)-1-methyl-2-oxo-1,2-dihydropyrido[3,2-d]pyrimidine-6-carbonitrile] |  |  | 5870 | 840 |
| CC[C@@H]1CN(c2nc(=O)n(C)c3ccc(C#N)nc23)[C@@H](C)CN1C(c1nc(C2CC2)no1)C(C)C (stereo partly drawn) [Example 366, 4-((2S,5R)-4-(1-(3-cyclopropyl-1,2,4-oxadiazol-5-yl)-2-methylpropyl)-5-ethyl-2-methylpiperazin-1-yl)-1-methyl-2-oxo-1,2-dihydropyrido[3,2-d]pyrimidine-6-carbonitrile] | 1450 | 620 |  |  |
| CC[C@H]1CN(C(C)c2ccc(C3(C#N)CC3)cc2)[C@H](CC)CN1c1nc(=O)n(C)c2ccc(C#N)nc12 (stereo partly drawn) [Example 264, 4-((2S,5R)-4-(1-(4-(1-cyanocyclopropyl)phenyl)ethyl)-2,5-diethylpiperazin-1-yl)-1-methyl-2-oxo-1,2-dihydropyrido[3,2-d]pyrimidine-6-carbonitrile] |  |  | 750 | 1170 |
| CCC(C1CC(F)(F)C1)N1C[C@H](C)N(c2nc(=O)n(C)c3ccc(C#N)nc23)C[C@H]1C (stereo partly drawn) [Example 458, 4-((2S,5R)-4-(1-(3,3-difluorocyclobutyl)propyl)-2,5-dimethylpiperazin-1-yl)-1-methyl-2-oxo-1,2-dihydropyrido[3,2-d]pyrimidine-6-carbonitrile] | 7740 | 6470 |  |  |
| CC[C@H]1CN(C(C)c2ccc(C(F)(F)F)cc2)[C@H](CC)CN1c1nc(=O)n(C)c2ccc(COC)nc12 (single isomer, unassigned) [Example 424] | 114000 | 4590 |  |  |
| CC[C@@H]1CN(c2nc(=O)n(C)c3ccc(C#N)nc23)[C@@H](C)CN1C(c1nnc(C2CC2)o1)C(C)C (single isomer, unassigned) [Example 368] | 1170 | 2250 |  |  |
| CCC(C1CCC(F)(F)CC1)N1C[C@H](C)N(c2nc(=O)n(C)c3ccc(C#N)nc23)C[C@H]1C (stereo partly drawn) [Example 460, 4-((2S,5R)-4-(1-(4,4-difluorocyclohexyl)propyl)-2,5-dimethylpiperazin-1-yl)-1-methyl-2-oxo-1,2-dihydropyrido[3,2-d]pyrimidine-6-carbonitrile] | 11600 | 12000 |  |  |
| CCC(c1ccc(OC(C)C)cc1)N1C[C@H](CC)N(c2nc(=O)n(C)c3ccc(C#N)nc23)C[C@H]1CC (stereo partly drawn) [Example 235, 4-((2S,5R)-2,5-diethyl-4-(1-(4-isopropoxyphenyl)propyl)piperazin-1-yl)-1-methyl-2-oxo-1,2-dihydropyrido[3,2-d] pyrimidine-6-carbonitrile] |  |  | 430 | 780 |
| CC[C@H]1CN(C(C)c2ccc(CN3CCN(C)C(=O)C3)cc2)[C@H](CC)CN1c1nc(=O)n(C)c2ccc(C#N)nc12 (stereo partly drawn) [Example 288, 4-((2S,5R)-2,5-diethyl-4-(1-(4-((4-methyl-3-oxopiperazin-1-yl)methyl)phenyl)ethyl)piperazin-1-yl)-1-methyl-2-oxo-1,2-dihydropyrido[3,2-d]pyrimidine-6-carbonitrile] |  |  | 4110 | 31700 |
| CC[C@H]1CN(C(C)c2ccc(CN3CCC(O)CC3)cc2)[C@H](CC)CN1c1nc(=O)n(C)c2ccc(C#N)nc12 (stereo partly drawn) [Example 286, 4-((2S,5R)-2,5-diethyl-4-(1-(4-((4-hydroxypiperidin-1-yl)methyl)phenyl)ethyl)piperazin-1-yl)-1-methyl-2-oxo-1,2-dihydropyrido[3,2-d]pyrimidine-6-carbonitrile] |  |  | 36200 | 125000 |

Continued by falling IC50 (human DGKα; [1]), values first:

| IC50 (human DGKα; [1]) [nM] | IC50 (human DGKζ; [2]) [nM] | IC50 (human DGKα; [3]) [nM] | IC50 (human DGKζ; [4]) [nM] | SMILES |
| --- | --- | --- | --- | --- |
| 600 | 870 |  |  | CCC(c1ccc(OC2CC2)cc1)N1C[C@H](C)N(c2nc(=O)n(C)c3ccc(C#N)nc23)C[C@H]1CC (stereo partly drawn) [Example 312, 4-((2S,5R)-4-(1-(4-cyclopropoxyphenyl)propyl)-5-ethyl-2-methylpiperazin-1-yl)-1-methyl-2-oxo-1,2-dihydropyrido[3,2-d]pyrimidine-6-carbonitrile] |
| 460 | 4450 |  |  | CC[C@H]1CN(C(C)c2ccc(C(F)(F)F)cc2)[C@H](CC)CN1c1nc(=O)n(C)c2ccc(OC)nc12 (single isomer, unassigned) [Example 427] |
| 440 | 750 |  |  | CC[C@@H]1CN(c2nc(=O)[nH]c3ccc(C#N)nc23)[C@@H](C)CN1C(C)c1ccc(C(F)(F)F)cc1 (single isomer, unassigned) [Example 413] |
| 280 | 910 |  |  | CC[C@@H]1CN(c2nc(=O)n(C)c3ccc(C(F)F)nc23)[C@@H](C)CN1C(C)c1ccc(C(F)(F)F)cc1 (stereo partly drawn) [Example 442, 6-(difluoromethyl)-4-((2S,5R)-5-ethyl-2-methyl-4-(1-(4-(trifluoromethyl)phenyl)ethyl)piperazin-1-yl)-1-methylpyrido[3,2-d]pyrimidin-2(1H)-one] |
| 230 | 6870 |  |  | CCC(c1ccc(C(F)(F)F)cc1)N1C[C@H](CC)N(c2nc(=O)n(C)c3ccc(Cl)nc23)C[C@H]1CC (single isomer, unassigned) [Example 422] |
| 160 | 150 |  |  | CCC(c1ccc(C2CC2)cc1)N1C[C@H](C)N(c2nc(=O)n(C)c3ccc(C#N)nc23)C[C@H]1C (stereo partly drawn) [Example 378, 4-((2S,5R)-4-(1-(4-cyclopropylphenyl)propyl)-2,5-dimethylpiperazin-1-yl)-1-methyl-2-oxo-1,2-dihydropyrido[3,2-d]pyrimidine-6-carbonitrile] |
| 150 | 660 |  |  | CC[C@@H]1CN(c2nc(=O)n(C)c3ccc(C#N)nc23)[C@@H](C)CN1C(C)c1ccc(CNC(=O)OC)cc1 (stereo partly drawn) [Example 360, Methyl (4-(1-((2R,5S)-4-(6-cyano-1-methyl-2-oxo-1,2-dihydropyrido[3,2-d]pyrimidin-4-yl)-2-ethyl-5-methylpiperazin-1-yl)ethyl)benzyl)carbamate] |
| 120 | 850 |  |  | CC[C@@H]1CN(c2nc(=O)n(C)c3ccc(C#N)nc23)[C@@H](C)CN1C(c1nnc(C2CC2)o1)C(C)C (single isomer, unassigned) [Example 367] |
| 74 | 720 |  |  | CCC(c1ccc(C2OCCO2)cc1)N1C[C@H](C)N(c2nc(=O)n(C)c3ccc(C#N)nc23)C[C@H]1CC (stereo partly drawn) [Example 332, 4-((2S,5R)-4-(1-(4-(1,3-dioxolan-2-yl)phenyl)propyl)-5-ethyl-2-methylpiperazin-1-yl)-1-methyl-2-oxo-1,2-dihydropyrido[3,2-d]pyrimidine-6-carbonitrile] |
| 29 | 180 |  |  | CCC(c1ccc(C2CC2)cc1F)N1C[C@H](C)N(c2nc(=O)n(C)c3ccc(C#N)nc23)C[C@H]1C (stereo partly drawn) [Example 380, 4-((2S,5R)-4-(1-(4-cyclopropyl-2-fluorophenyl)propyl)-2,5-dimethylpiperazin-1-yl)-1-methyl-2-oxo-1,2-dihydropyrido[3,2-d]pyrimidine-6-carbonitrile] |
